US8664226B2, “Compound having 3-heteroarylpyrimidin-4-(3H)-one structure and pharmaceutical preparation containing same” (Kowa Company, Ltd., priority 2009, dated 2014)

How the values were obtained:
[1] = target: T1, angiotensin II type 1 receptor (Oryctolagus cuniculus, UniProt P34976); assay: Angiotensin II antagonistic activity in isolated rabbit blood vessels; details: angiotensin II (10 nM)-induced contraction of rabbit thoracic aorta ring
T1 construct: By using a specimen of isolated rabbit blood vessels; from tissue; host or cells: rabbit thoracic aorta ring (New Zealand White, male)
T1 sequence (P34976 1-359): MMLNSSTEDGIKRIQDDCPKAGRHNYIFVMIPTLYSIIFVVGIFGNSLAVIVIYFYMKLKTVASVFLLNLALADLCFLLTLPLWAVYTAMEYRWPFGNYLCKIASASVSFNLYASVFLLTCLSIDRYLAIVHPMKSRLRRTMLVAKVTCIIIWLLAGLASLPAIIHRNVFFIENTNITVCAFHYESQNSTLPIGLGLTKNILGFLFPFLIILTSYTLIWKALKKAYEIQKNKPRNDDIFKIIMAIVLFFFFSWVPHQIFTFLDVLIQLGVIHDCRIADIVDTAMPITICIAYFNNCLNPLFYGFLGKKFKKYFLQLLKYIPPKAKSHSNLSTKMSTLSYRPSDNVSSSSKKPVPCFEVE
Experimental: By using a specimen of isolated rabbit blood vessels, antagonistic activity of the compounds of the invention against angiotensin II type 1 receptor was estimated from a dose-response curve of angiotensin II-induced blood vessel contraction.
During the measurement, the inside temperature of the magnus bath was maintained at 37° C. and the bath was continuously ventilated with a sufficient amount of mixed gas (95% O2 and 5% CO2). The angiotensin II-induced contraction was converted into a relative value (%) that is based on the angiotensin II (10 nM)-induced contraction in the absence of the compounds of each example. From the concentration-response curve obtained therefrom, 50% inhibition concentration (IC50 value) was calculated by using SAS Preclinical Package Ver5.0 (trade name, manufactured by SAS institute Japan Co., Tokyo, Japan), which is a statistical analysis program.

[2] = target: T2, human PPARγ2 (Homo sapiens, UniProt P37231); assay: PPARγ activation activity, Gal4 chimera luciferase transfection assay using COS7 cells; format: cell-based; details: for EC50 / Emax: COS7 cells; for EC50: Gal4-human PPARγ2 LBD chimera, luciferase reporter, 16 hours, read-out: EC50; for Emax: COS-7, 16 h, maximum activity strength relative to the maximum activity of rosiglitazone, read-out: % MAX vs Rosiglitazone; for maximum activity compared with telmisartan: maximum PPARγ activity, telmisartan 30 to 50% of rosiglitazone under the same condition
T2 construct: the amino acids 182 to 505 of human PPARγ2; expressed in transfected cells; host or cells: COS7 cells
T2 sequence (P37231 182-505): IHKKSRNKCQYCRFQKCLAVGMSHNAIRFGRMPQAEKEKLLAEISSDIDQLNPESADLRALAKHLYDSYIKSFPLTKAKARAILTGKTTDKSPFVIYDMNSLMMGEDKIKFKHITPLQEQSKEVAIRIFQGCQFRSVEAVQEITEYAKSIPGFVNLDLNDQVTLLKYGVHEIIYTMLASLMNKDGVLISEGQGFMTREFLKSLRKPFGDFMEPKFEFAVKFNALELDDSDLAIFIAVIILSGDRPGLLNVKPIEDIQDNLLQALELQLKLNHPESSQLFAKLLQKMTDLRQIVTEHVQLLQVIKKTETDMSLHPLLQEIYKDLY
T2 sequence (P04386 1-147 partner limits assumed): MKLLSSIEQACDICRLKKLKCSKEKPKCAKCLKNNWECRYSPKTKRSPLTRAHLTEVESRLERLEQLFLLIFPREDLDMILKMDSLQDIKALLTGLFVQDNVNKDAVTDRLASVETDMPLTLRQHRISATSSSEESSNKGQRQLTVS
Experimental: The agonistic activity of the compounds of the invention on PPARγ was measured based on the transfection assay using COS7 cells (DS Pharma Biomedical Co., Ltd., Osaka, Japan), which are the cell line derived from the kidney of the African green monkey. COS7 cells were cultured under 5% CO2 concentration, and DMEM medium containing 10% fetal bovine serum, glutamic acid, and antibiotics was used as a medium.
As an expression vector, a chimera in which DNA binding domain of Gal4, which is a yeast transcription factor, and ligand binding domain of human PPAR^γ2 are fused, i.e., a fused product between the amino acids 1 to 147 of Gal4 transcription factor and the amino acids 182 to 505 of human PPARγ2, was used. Furthermore, as a reporter vector, a firefly luciferase containing five copies of Gal4 recognition sequence in the promoter region was used. Plasmid transfection to the cells was performed according to a method which uses jetPEI (trade name, manufactured by Funakoshi Co., Ltd., Tokyo, Japan). Furthermore, β-galactosidase expression vector was employed as an internal standard.
After the transfection of the cells, the medium was replaced with a DMEM medium (containing 1% serum) added with the compound, and the cells were further cultured for 16 hours. After that, the luciferase activity and β-galactosidase activity in the cell lysis solution were measured.
For the present test, dimethyl sulfoxide (DMSO) was used for dissolution and dilution of the test compounds, and during the cell treatment, the DMSO concentration in DMEM medium (containing 1% serum) was adjusted to 0.1%. As a positive compound, rosiglitazone (trade name, manufactured by ALEXIS Corporation, Switzerland) was used. […] The 50% effective concentration of the test compound (EC50, 50% effect concentration) was calculated by using SAS Preclinical Package Ver5.0 (trade name, manufactured by SAS institute Japan Co., Tokyo, Japan), which is a statistical analysis program.

Row | IC50 [1] [nM] | EC50 [2] [nM] | Emax [2] [%] | SMILES | maximum activity compared with telmisartan [2]
1 | 432 | 820 | 55.5 | CCCCc1nc(C)n(-c2ccc3ccccc3n2)c(=O)c1Cc1ccc(-c2ccccc2-c2nnn[nH]2)cc1 [Example 66, 5-{[2′-(1H-tetrazol-5-yl)biphenyl-4-yl]methyl}-6-butyl-2-methyl-3-(quinolin-2-yl)pyrimidin-4 (3H)-one] | the same or greater than that of telmisartan
2 | 627 | 3770 | – | CCCCc1nc(C)n(-c2ncc(OCCc3ccc(CC)cn3)cn2)c(=O)c1Cc1ccc(-c2ccccc2-c2nnn[nH]2)cc1 [Example 36, 5-{[2′-(1H-tetrazol-5-yl)biphenyl-4-yl]methyl}-6-butyl-3-{5-[2-(5-ethylpyridin-2-yl)ethoxy]pyrimidin-2-yl}-2-methylpyrimidin-4 (3H)-one] | –
3 | 14 | 2410 | 35.5 | CCCCc1nc(C)n(-c2ncc(Br)cn2)c(=O)c1Cc1ccc(-c2ccccc2-c2nnn[nH]2)cc1 [Example 16, 5-{[2′-(1H-tetrazol-5-yl)biphenyl-4-yl]methyl}-3-(5-bromopyrimidin-2-yl)-6-butyl-2-methylpyrimidin-4 (3H)-one] | –
4 | 2.7 | 4220 | – | CCCCc1nc(C)n(-c2ncc(OC(C(=O)O)c3ccccc3)cn2)c(=O)c1Cc1ccc(-c2ccccc2-c2nnn[nH]2)cc1 (stereo not drawn) [Example 42, 2-{2-{5-{[2′-(1H-tetrazol-5-yl)biphenyl-4-yl]methyl}-4-butyl-2-methyl-6-oxopyrimidin-1(6H)-yl}pyrimidin-5-yloxy}-2-phenylacetic acid] | –
5 | 26 | 170 | – | CCCCc1nc(C)n(-c2ncc(C(F)(F)F)cc2Cl)c(=O)c1Cc1ccc(-c2ccccc2-c2nnn[nH]2)cc1 [Example 13, 5-{[2′-(1H-tetrazol-5-yl)biphenyl-4-yl]methyl}-6-butyl-3-[3-chloro-5-(trifluoromethyl)pyridin-2-yl]-2-methylpyrimidin-4(3H)-one] | –
6 | 8.3 | 140 | – | CCCCc1nc(C)n(-c2ncc(OCCCC(=O)N(CC)CC)cn2)c(=O)c1Cc1ccc(-c2ccccc2-c2nnn[nH]2)cc1 [Example 52, 4-{2-{5-{[2′-(1H-tetrazol-5-yl)biphenyl-4-yl]methyl}-4-butyl-2-methyl-6-oxopyrimidin-1(6H)-yl}pyrimidin-5-yloxy}-N,N-diethylbutanamide] | –
7 | 18 | 3740 | – | CCCCc1nc(C)n(-c2ccc(OC)cn2)c(=O)c1Cc1ccc(-c2ccccc2-c2nnn[nH]2)cc1 [Example 3, 5-{[2′-(1H-tetrazol-5-yl)biphenyl-4-yl]methyl}-6-butyl-3-(5-methoxypyridin-2-yl)-2-methylpyrimidin-4(3H)-one] | –
8 | < 10000 | 740 | – | CCCCc1nc(C)n(-c2nccc3ccccc23)c(=O)c1Cc1ccc(-c2ccccc2-c2nnn[nH]2)cc1 [Example 67, 5-{[2′-(1H-tetrazol-5-yl)biphenyl-4-yl]methyl}-6-butyl-3-(isoquinolin-1-yl)-2-methylpyrimidin-4 (3H)-one] | –
9 | 981 | 1300 | 48.6 | CCCCc1nc(C)n(-c2ccc(C(F)(F)F)cn2)c(=O)c1Cc1ccc(-c2ccccc2-c2nnn[nH]2)cc1 [Example 11, 5-{[2′-(1H-tetrazol-5-yl)biphenyl-4-yl]methyl}-6-butyl-2-methyl-3-[5-(trifluoromethyl)pyridin-2-yl]pyrimidin-4(3H)-one] | the same or greater than that of telmisartan
10 | 193 | 3670 | – | CCCCc1nc(C)n(-c2ccon2)c(=O)c1Cc1ccc(-c2ccccc2-c2nnn[nH]2)cc1 [Example 63, 5-{[2′-(1H-tetrazol-5-yl)biphenyl-4-yl]methyl}-6-butyl-3-(isoxazol-3-yl)-2-methylpyrimidin-4 (3H)-one] | –
11 | 435 | 3390 | – | CCCCc1nc(C)n(-c2nccs2)c(=O)c1Cc1ccc(-c2ccccc2-c2nnn[nH]2)cc1 [Example 62, 5-{[2′-(1H-tetrazol-5-yl)biphenyl-4-yl]methyl}-6-butyl-2-methyl-3-(thiazol-2-yl)pyrimidin-4 (3H)-one] | –
12 | 958 | 2690 | 31.6 | CCCCc1nc(C)n(-c2nc3ccccc3n2C)c(=O)c1Cc1ccc(-c2ccccc2-c2nnn[nH]2)cc1 [Example 69, 5-{[2′-(1H-tetrazol-5-yl)biphenyl-4-yl]methyl}-6-butyl-2-methyl-3-(1-methyl-1H-benzimidazol-2-yl)pyrimidin-4 (3H)-one] | –
13 | 12 | 70 | – | CCCCc1nc(C)n(-c2ncc(OCCCC(=O)NCC)cn2)c(=O)c1Cc1ccc(-c2ccccc2-c2nnn[nH]2)cc1 [Example 49, 4-{2-{5-{[2′-(1H-tetrazol-5-yl)biphenyl-4-yl]methyl}-4-butyl-2-methyl-6-oxopyrimidin-1(6H)-yl}pyrimidin-5-yloxy}-N-ethylbutanamide] | –
14 | 223 | 2610 | – | CCCCc1nc(C)n(-c2cc3ccccc3cn2)c(=O)c1Cc1ccc(-c2ccccc2-c2nnn[nH]2)cc1 [Example 68, 5-{[2′-(1H-tetrazol-5-yl)biphenyl-4-yl]methyl}-6-butyl-3-(isoquinolin-3-yl)-2-methylpyrimidin-4 (3H)-one] | –
15 | 2.6 | 80 | – | CCCCc1nc(C)n(-c2ncc(OCCCC(N)=O)cn2)c(=O)c1Cc1ccc(-c2ccccc2-c2nnn[nH]2)cc1 [Example 47, 4-{2-{5-{[2′-(1H-tetrazol-5-yl)biphenyl-4-yl]methyl}-4-butyl-2-methyl-6-oxopyrimidin-1(6H)-yl}pyrimidin-5-yloxy}butanamide] | –
16 | 352 | 1910 | – | CCCCc1nc(C)n(-c2ncc(OCCCNS(=O)(=O)C(F)(F)F)cn2)c(=O)c1Cc1ccc(-c2ccccc2-c2nnn[nH]2)cc1 [Example 58, N-{3-{2-{5-{[2′-(1H-tetrazol-5-yl)biphenyl-4-yl]methyl}-4-butyl-2-methyl-6-oxopyrimidin-1 (6H)-yl}pyrimidin-5-yloxy}propyl}-1,1,1-trifluoromethane sulfonamide] | –
17 | 24 | 3890 | – | CCCCc1nc(C)n(-c2ncc(OCCSC)cn2)c(=O)c1Cc1ccc(-c2ccccc2-c2nnn[nH]2)cc1 [Example 26, 5-{[2′-(1H-tetrazol-5-yl)biphenyl-4-yl]methyl}-6-butyl-2-methyl-3-{5-[2-(methylthio)ethoxy]pyrimidin-2-yl}pyrimidin-4 (3H)-one] | –
18 | 396 | 2550 | – | CCCCc1nc(C)n(-c2ncc(OCc3ccccc3)cn2)c(=O)c1Cc1ccc(-c2ccccc2-c2nnn[nH]2)cc1 [Example 19, 5-{[2′-(1H-tetrazol-5-yl)biphenyl-4-yl]methyl}-3-[5-(benzyloxy)pyrimidin-2-yl]-6-butyl-2-methylpyrimidin-4 (3H)-one] | –
19 | 84 | 4150 | 24.1 | CCCCc1nc(C)n(-c2ccc(C)cn2)c(=O)c1Cc1ccc(-c2ccccc2-c2nnn[nH]2)cc1 [Example 2, 5-{[2′-(1H-tetrazol-5-yl)biphenyl-4-yl]methyl}-6-butyl-2-methyl-3-(5-methylpyridin-2-yl)pyrimidin-4(3H)-one] | –
20 | 24 | 1690 | 20.3 | CCCCc1nc(C)n(-c2ncccc2Cl)c(=O)c1Cc1ccc(-c2ccccc2-c2nnn[nH]2)cc1 [Example 6, 5-{[2′-(1H-tetrazol-5-yl)biphenyl-4-yl]methyl}-6-butyl-3-(3-chloropyridin-2-yl)-2-methylpyrimidin-4(3H)-one] | –
